For two compounds, IC50 results are on record in BindingDB's records for patent US9777020 (AbbVie Inc, 2017).

pIC50: −log10 of the molar value.

The assay has as its target High affinity nerve growth factor receptor (Homo sapiens, UniProt P04629).

Sequence of High affinity nerve growth factor receptor (P04629 whole entry): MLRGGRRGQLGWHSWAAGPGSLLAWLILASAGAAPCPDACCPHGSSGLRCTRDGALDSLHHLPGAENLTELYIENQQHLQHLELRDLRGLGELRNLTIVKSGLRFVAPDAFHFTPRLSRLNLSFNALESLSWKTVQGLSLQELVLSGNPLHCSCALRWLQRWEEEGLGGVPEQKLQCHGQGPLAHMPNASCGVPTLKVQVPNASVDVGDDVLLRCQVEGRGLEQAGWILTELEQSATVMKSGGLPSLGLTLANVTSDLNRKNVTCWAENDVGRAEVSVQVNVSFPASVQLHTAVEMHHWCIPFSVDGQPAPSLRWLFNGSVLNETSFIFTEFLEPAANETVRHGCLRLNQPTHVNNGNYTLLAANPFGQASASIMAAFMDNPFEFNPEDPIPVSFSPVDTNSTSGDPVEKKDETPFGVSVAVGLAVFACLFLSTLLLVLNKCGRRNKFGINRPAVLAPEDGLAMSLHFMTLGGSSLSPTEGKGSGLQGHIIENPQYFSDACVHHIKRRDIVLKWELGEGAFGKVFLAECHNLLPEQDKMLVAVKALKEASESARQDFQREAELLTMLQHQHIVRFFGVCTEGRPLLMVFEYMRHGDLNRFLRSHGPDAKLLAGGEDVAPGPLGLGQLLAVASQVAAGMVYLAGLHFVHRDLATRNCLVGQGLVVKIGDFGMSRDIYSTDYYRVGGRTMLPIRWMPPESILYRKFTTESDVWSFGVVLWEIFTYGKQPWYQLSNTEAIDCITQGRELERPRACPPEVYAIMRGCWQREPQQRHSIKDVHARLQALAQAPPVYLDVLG

In the case of `Cc1nc2ccc(NC(=O)c3coc4c3C(=O)NCC4)cc2s1` [US9777020, Example 15], the pIC50 (in general, the IC50 on a negative log10 scale, so that one unit is a factor of ten) was 7.16.
For `CCOc1nc(N2CCOCC2)ccc1NC(=O)c1coc2c1C(=O)NCC2` [US9777020, Example 106] the value was 7.54.
